Measurements as given in patent publication US20150210669A1, “COMPOUND FOR THE TREATMENT OF TUMOURS AND TUMOUR METASTASES” (SIENA BIOTECH S.P.A., priority 2010, published 2015).

Key:
Hh pathway = assay: alkaline phosphatase-based assay of Hh pathway inactivation; assay type: cell-based; conditions: alkaline phosphatase-based assay described in WO2009074300
Description: The level of inactivation of the Hh pathway resulting from this binding was determined using the alkaline phosphatase-based assay described in WO2009074300, resulting in an IC50 value below 30 nM.

Smo receptor = Smo receptor (Homo sapiens, UniProt Q99835); assay: competitive binding assay displacing fluorescently-labeled Bodipy-Cyclopamine; conditions: displacement of Bodipy-Cyclopamine; assay described in WO2009074300; read-out: Ki, binding affinity with the Smo receptor
Chain of Smo receptor (Q99835 28-787): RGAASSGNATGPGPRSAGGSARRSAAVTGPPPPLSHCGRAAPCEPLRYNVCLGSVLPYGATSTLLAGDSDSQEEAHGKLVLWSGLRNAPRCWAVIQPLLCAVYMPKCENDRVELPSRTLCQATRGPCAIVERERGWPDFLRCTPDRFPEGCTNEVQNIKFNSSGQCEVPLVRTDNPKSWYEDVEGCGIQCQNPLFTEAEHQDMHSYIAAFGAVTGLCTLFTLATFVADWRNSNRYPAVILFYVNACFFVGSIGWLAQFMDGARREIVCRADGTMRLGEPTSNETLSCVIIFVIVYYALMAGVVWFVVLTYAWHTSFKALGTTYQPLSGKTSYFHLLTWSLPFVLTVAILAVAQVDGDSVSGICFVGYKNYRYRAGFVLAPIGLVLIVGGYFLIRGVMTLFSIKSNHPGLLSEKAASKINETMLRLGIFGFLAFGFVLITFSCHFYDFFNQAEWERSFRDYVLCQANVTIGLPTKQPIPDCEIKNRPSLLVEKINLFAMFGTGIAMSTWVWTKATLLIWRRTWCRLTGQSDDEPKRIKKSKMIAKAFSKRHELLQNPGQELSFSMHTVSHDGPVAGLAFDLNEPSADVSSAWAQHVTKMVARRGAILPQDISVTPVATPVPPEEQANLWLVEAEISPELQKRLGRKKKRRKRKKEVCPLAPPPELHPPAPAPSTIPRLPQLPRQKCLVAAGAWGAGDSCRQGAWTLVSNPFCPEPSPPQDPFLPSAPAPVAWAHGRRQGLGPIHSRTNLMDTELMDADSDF

IC50 (Hh pathway): < 30 nM | Ki (Smo receptor): < 100 nM
SMILES: Cc1ccc(-c2cc(N3CCC(C(=O)N4CCN(C)CC4)CC3)ccc2Cl)nc1 [Compound C, {1-[4-Chloro-3-(5-methyl-pyridin-2-yl)-phenyl]-piperidin-4-yl}-(4-methyl-piperazin-1-yl)-methanone]
